Patent US7556795B2, “Radiopharmaceutical formulations” (Bracco Imaging S.p.A., priority 2002, dated 2009)

Test: Radiochemical purity (RCP) of 99mTc labeled peptide by HPLC
Type: physicochemical
Conditions: 99mTc complex, 4 μg ligand, 300 μL EtOH, ~40 mCi 99mTcO4-, average of multiple experiments; for Percent RCP at 6 hours: prepared at room temperature; for Percent RCP at 15 min: room temperature 15 min
Procedure: To prepare the ^99mTc complex of Compound 1, 300 μL of ethanol, 50 μL of ligand solution (4 μg Compound 1), 200 μL of gentisic acid solution (20 mg), 50 μL of hydroxypropyl-γ-cyclodextrin solution (2.5 mg) 100 μL of stannous gluconate solution (40 μg of SnCl2), and ^99mTcO4^− (˜40 mCi) was added. Water was added to bring the final volume to 1.0 mL, and the reaction was heated at 100° C. for 15-20 min.
The ^99mTc labeled peptide purity was determined by HPLC using a Vydac C18 protein and peptide analytical column, 300 A pore size, 4.6×250 mm column length. The following gradient (flow rate 1 mL/min) was used: Isocratic elution 78% H2O (0.1% TFA)/22% CH3CN (0.1% TFA) for 20 min, gradient from 78% to 40% CH3CN (0.1% TFA) over 5 min, hold at 40% CH3CN (0.1% TFA) for 10 min, ramp from 40% to 78% CH3CN (0.1% TFA) over 5 min.
To prepare the ^99mTc complex, 50 μL of ligand solution (4 μg Compound 1-4), 300 μL of EtOH, 250 μL of gentisic acid solution (20 mg), 50 μL of 1SnCl2: 34 Gluconic acid (40 μg of SnCl2), and ^99mTcO4^− (˜40 mCi, Syncor) was added. Water was added to bring the final volume to 1.0 mL, and the reaction was allowed to stand at room temperature for 15 min. The solutions were then analyzed for RCP as described in Example 2.
To 50 μL of the Compound 1 solution (4 μg) was added ^99mTcO4^− (190 μL, 41.5 mCi), 0.458 mL of H2O, 50 μL of the stannous gluconate solution (40 μg of SnCl2) and 262 μL of gentisic acid solution (20 mg). The reaction was heated at 100° for 5 min. prior to HPLC analysis, which was performed using the following system: Vydac C-18 Protein and Peptide column (4.6×250 mm) eluted with 78% H2O (0.1% TFA)/22% CH3CN (0.1% TFA) for 20′, ramped from 78% to 40% H2O (0.1% TFA) in 5′, held at 40% H2O (0.1% TFA) for 10′, then ramped from 40% to 78% H2O (0.1% TFA) in 5′. Flow rate: 1 mL/min. The resulting RCP was 87.4% initially and 87.1% at 6 hours. The recovery from the vial was 67%.

Row | SMILES | Percent RCP at 6 hours [%] | Percent RCP at 15 min [%]
1 | CSCC[C@H](NC(=O)[C@H](CC(C)C)NC(=O)[C@H](Cc1cnc[nH]1)NC(=O)CNC(=O)[C@@H](NC(=O)[C@H](C)NC(=O)[C@H](Cc1c[nH]c2ccccc12)NC(=O)[C@H](CCC(N)=O)NC(=O)CCCCNC(=O)CNC(=O)[C@H](CS)NC(=O)CNC(=O)CN)C(C)C)C(N)=O [Compound 4] | 83.3 | 83.3
2 | CSCC[C@H](NC(=O)[C@H](CC(C)C)NC(=O)[C@H](Cc1cnc[nH]1)NC(=O)CNC(=O)[C@@H](NC(=O)[C@H](C)NC(=O)[C@H](Cc1c[nH]c2ccccc12)NC(=O)[C@H](CCC(N)=O)NC(=O)CCCCNC(=O)CNC(=O)[C@H](CS)NC(=O)CNC(=O)CN(C)C)C(C)C)C(N)=O [Compound 2] | 78.7 | 80.8
3 | CSCC[C@H](NC(=O)[C@H](CC(C)C)NC(=O)[C@H](Cc1cnc[nH]1)NC(=O)CNC(=O)[C@@H](NC(=O)[C@H](C)NC(=O)[C@H](Cc1c[nH]c2ccccc12)NC(=O)[C@H](CCC(N)=O)NC(=O)CCCCNC(=O)CNC(=O)[C@H](CS)NC(=O)[C@H](CO)NC(=O)CN)C(C)C)C(N)=O [Compound 3] | 82.4 | 86.7
4 | CSCCC(NC(=O)[C@H](CC(C)C)NC(=O)[C@H](Cc1cnc[nH]1)NC(=O)CNC(=O)[C@@H](NC(=O)[C@H](C)NC(=O)[C@H](Cc1c[nH]c2ccccc12)NC(=O)[C@H](CCC(N)=O)NC(=O)CCCCNC(=O)CNC(=O)[C@H](CS)NC(=O)[C@H](CO)NC(=O)CN(C)C)C(C)C)C(N)=O (stereo partly shown) [Compound 1] | 88.1 | 
